Assay results published in patent US11643403B2 (ILDONG PHARMACEUTICAL CO., LTD., priority 2019, dated 2023).

Experiments:
[1] = biological target: GLP-1 receptor CHO-K1 cells (Homo sapiens (Human), UniProt P43220); assay: cAMP assay (HTRF, CISBIO kit); format: cell-based; details: for Emax: CHO-K1, cAMP stimulation ratio, Exendin-4 = 100%
Description: A cAMP assay test was performed according to a method optimized based on a protocol provided by a cAMP assay kit manufacturer (CISBIO). […] The cells were incubated at room temperature for 7 minutes. A cAMP-d2 conjugate reagent was prepared by mixing a cAMP conjugate with an elution buffer at a ratio of 1:4. An anti-cAMP cryptate conjugate reagent was prepared by mixing a […] with an elution buffer at a ratio of 1:4. Then, […] of the cAMP-d2 conjugate reagent was added to each of the wells. Subsequently, […] of the anti-cAMP cryptate conjugate reagent was added to each of the wells.

[2] = Intravenous glucose tolerance test (ivGTT) via intravenous administration, plasma insulin ELISA; format: in vivo; details: test substance 1 mg/mL/kg intravenously, maximum plasma insulin
Description: Before the intravenous glucose tolerance test (ivGTT) was performed, monkeys to be used in the test were fasted for 16 hours. After the fasting, fasting blood sugar was measured on the day of the test, and the monkeys were grouped to minimize blood sugar deviation. Each of the monkeys was fixed on a correction chair and anesthetized. A tube catheter was inserted into a saphenous vein of the monkey immediately before glucose administration (0 minute), and the test substance (1 mg/mL/kg) was administered intravenously. After the drug administration, glucose (0.25 g/kg, 50% dextrose solution 0.5 mL/kg) was intravenously administered through the tube catheter inserted into the vein. […] The separated plasma samples were stored in a frozen state until insulin analysis.
(§1) The frozen plasma samples were slowly thawed on ice. An ELISA test was performed according to a protocol provided with a Monkey insulin ELISA kit (LSBio, Cat No. LS-F10306). An insulin concentration was calculated by drawing a standard curve using the absorbance of the insulin standard and applying the absorbance of each measured sample thereto.

[3] = Intravenous glucose tolerance test (ivGTT) via oral administration, plasma insulin ELISA; format: in vivo; details: test substance 50 mg/5 mL/kg orally 60 minutes before glucose […] iv, maximum plasma insulin
Description: Before performing the ivGTT, the monkeys to be used in the test were fasted for 16 hours. After the fasting, fasting blood sugar was measured on the day of the test, and then the monkeys were grouped to minimize blood sugar deviation. On 60 minutes before glucose administration (−60 minutes), each of the monkeys was fixed on a correction chair, and the test substance (50 mg/5 mL/kg) was administered orally using a catheter for oral administration. The monkey fixed on the correction chair was anesthetized, and glucose (0.25 g/kg, 50% dextrose solution 0.5 mL/kg) was intravenously administered through a tube catheter inserted into the vein. […] The separated plasma samples were stored in a frozen state until insulin analysis.
as §1

[4] = biological target: hERG (human ether-a-go-go related gene) potassium channel (Homo sapiens (Human), UniProt Q12809); assay: hERG analysis, automatic whole-cell patch clamp (QPatch 48 HT); format: cell-based; details: hERG-expressing CHO-K1 cell line, 1-100 μM, room temperature
hERG (human ether-a-go-go related gene) potassium channel, sequence (Q12809 whole entry): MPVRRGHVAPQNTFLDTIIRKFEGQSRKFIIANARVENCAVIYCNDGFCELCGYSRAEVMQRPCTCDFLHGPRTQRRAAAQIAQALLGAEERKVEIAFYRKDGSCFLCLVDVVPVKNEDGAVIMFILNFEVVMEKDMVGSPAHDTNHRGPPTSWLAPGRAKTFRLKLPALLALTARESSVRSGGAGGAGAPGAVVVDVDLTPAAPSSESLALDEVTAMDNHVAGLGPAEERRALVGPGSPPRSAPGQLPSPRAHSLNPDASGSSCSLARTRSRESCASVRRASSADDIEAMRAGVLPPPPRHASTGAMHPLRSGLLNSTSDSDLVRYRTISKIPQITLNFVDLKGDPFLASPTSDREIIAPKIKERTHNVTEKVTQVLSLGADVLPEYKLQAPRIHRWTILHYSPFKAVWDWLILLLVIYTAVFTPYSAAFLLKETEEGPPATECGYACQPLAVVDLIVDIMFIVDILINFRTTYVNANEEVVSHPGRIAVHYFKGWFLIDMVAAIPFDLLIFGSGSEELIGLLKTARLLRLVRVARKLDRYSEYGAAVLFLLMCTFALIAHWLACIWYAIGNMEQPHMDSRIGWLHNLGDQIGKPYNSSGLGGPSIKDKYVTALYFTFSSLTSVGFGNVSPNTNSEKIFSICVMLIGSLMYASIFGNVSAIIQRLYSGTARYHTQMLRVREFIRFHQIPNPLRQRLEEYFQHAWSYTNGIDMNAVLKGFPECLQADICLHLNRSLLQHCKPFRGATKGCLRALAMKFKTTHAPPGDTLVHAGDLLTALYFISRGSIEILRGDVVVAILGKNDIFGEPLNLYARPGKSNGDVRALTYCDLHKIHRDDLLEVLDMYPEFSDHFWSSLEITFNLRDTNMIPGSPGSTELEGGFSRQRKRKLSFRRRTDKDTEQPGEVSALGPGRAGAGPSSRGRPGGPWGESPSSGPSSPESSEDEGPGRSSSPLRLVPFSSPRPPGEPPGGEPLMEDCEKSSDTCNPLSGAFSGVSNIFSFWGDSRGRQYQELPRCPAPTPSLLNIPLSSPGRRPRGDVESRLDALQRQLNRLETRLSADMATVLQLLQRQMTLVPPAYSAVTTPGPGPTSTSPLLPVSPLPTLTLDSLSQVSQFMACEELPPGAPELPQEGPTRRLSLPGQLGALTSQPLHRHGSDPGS
Description: The inhibition of activity of hERG (human ether-a-go-go related gene) potassium channel by the compounds was evaluated by using an automatic whole-cell patch clamp system (QPatch 48 HT, Sophion Bioscience) that can directly measure the flow of ions through the potassium channel in cells. A CHO-K1 cell line stably expressing human hERG cDNA (Kv11.1, KCNH2) was used. The composition of the intracellular solution (mM) used for the analysis is 70 KF, 60 KCl, 15 NaCl, 5 HEPES, 5 EGTA, 5 MgATP, pH 7.3 by KOH.
The hERG-expressing CHO-K1 cell line was treated with each compound at five concentrations (1, 3, 10, 30 and 100 μM), and incubated with each test concentration for 5 minutes in duplicate. All experiments were conducted at room temperature. Change in current amplitude through the hERG channel was recorded every 8 seconds.
Stock solution for each compound is prepared in DMSO at 300× the final assay concentrations, and stored at −20° C. until the day of assay. On the day of the experiment, the stock was diluted into an extracellular solution to make final treatment concentration.
The change in hERG current before and after treatment with the test substance was recorded using the automatic whole cell patch clamp, and the hERG inhibition percentage (%) was calculated based on the control group.
In this calculation, an inhibitor dose-response curve analyzed by using a curve fitting program that uses a 4-parameter logistic dose response equation was used.

GLP-1 receptor CHO-K1 cells, sequence (P43220 24-463): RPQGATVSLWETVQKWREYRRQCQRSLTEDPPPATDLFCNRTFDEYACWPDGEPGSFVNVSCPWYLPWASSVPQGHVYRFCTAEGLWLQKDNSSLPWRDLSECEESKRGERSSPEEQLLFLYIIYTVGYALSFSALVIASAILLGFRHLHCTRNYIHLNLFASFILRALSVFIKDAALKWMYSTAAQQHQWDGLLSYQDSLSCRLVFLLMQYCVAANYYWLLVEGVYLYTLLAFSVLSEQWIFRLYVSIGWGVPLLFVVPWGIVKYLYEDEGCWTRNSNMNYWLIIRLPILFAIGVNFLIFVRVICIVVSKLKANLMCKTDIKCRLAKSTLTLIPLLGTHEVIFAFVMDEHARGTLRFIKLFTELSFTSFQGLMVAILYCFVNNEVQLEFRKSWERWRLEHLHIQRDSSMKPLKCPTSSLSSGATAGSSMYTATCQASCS

SMILES	EC50 [1] [nM]	Emax [1] [%]	Monkey ivGTT (iv) insulinmax (IU/mL) [2]	Monkey ivGTT (po) insulinmax [3]	IC50 [4] [nM]
N#Cc1ccc(COc2cccc(N3CCN(Cc4nc5ccc(C(=O)O)nc5n4C[C@@H]4CCO4)CC3)n2)nc1 [Example 5, (S)-2-((4-(6-((5-cyanopyridin-2-yl)methoxy)pyridin-2-yl)piperazin-1-yl)methyl)-3-(oxetane-2-ylmethyl)-3H-imidazo[4,5-b]pyridine-5-carboxylic acid]	50 to 100	111			
C[C@H]1CN(c2cccc(OCc3ccc(C#N)cn3)n2)CCN1Cc1nc2ccc(C(=O)O)nc2n1C[C@@H]1CCO1 [Example 6, 2-(((S)-4-(6-((5-cyanopyridin-2-yl)methoxy)pyridin-2-yl)-2-methylpiperazin-1-yl)methyl)-3-(((S)-oxetan-2-yl)methyl)-3H-imidazo[4,5-b]pyridine-5-carboxylic acid]			++ (a maximum insulin concentration is greater than 250 IU/mL)	+ (a maximum insulin concentration is 50˜100 IU/mL)	> 100000
O=C(O)c1ccc2nc(CN3CCC(c4cccc(OCc5ncc(Cl)cc5F)c4)CC3)n(C[C@@H]3CCO3)c2c1 [Example 10, (S)-2-((4-(3-((5-chloro-3-fluoropyridin-2-yl)methoxy)phenyl)piperidin-1-yl)methyl)-1-(oxetane-2-ylmethyl)-1H-benzo[d]imidazole-6-carboxylic acid]	50 to 100	96.4			
O=C(O)c1ccc2nc(CN3CCN(c4cccc(OCc5ccc(Cl)cn5)n4)CC3)n(C[C@@H]3CCO3)c2c1 [Example 17, (S)-2-((4-(6-((5-chloropyridin-2-yl)methoxy)pyridin-2-yl)piperazin-1-yl)methyl)-1-(oxetane-2-ylmethyl)-1H-benzo [d]imidazole-6-carboxylic acid]	< 50	101	+ (a maximum insulin concentration is 200˜250 IU/mL)		> 100000

Second part, led by results:

EC50 [1] [nM]	Emax [1] [%]	SMILES	Monkey ivGTT (iv) insulinmax (IU/mL) [2]	Monkey ivGTT (po) insulinmax [3]	IC50 [4] [nM]
< 50	104	C[C@H]1CN(c2cccc(OCc3ccc(C#N)cn3)n2)CCN1Cc1nc2ccc(C(=O)O)cc2n1C[C@@H]1CCO1 [Example 1, 2-(((S)-4-(6-((5-cyanopyridin-2-yl)methoxy)pyridin-2-yl)-2-methylpiperazin-1-yl)methyl)-1-(((S)-oxetan-2-yl)methyl)-1H-benzo[d]imidazole-6-carboxylic acid]	++ (a maximum insulin concentration is greater than 250 IU/mL)	+ (a maximum insulin concentration is 50˜100 IU/mL)	> 100000
< 50	108	N#Cc1ccc(COc2cccc(N3CCN(Cc4nc5ccc(C(=O)O)cc5n4C[C@@H]4CCO4)CC3)n2)nc1 [Example 2, (S)-2-((4-(6-((5-cyanopyridin-2-yl)methoxy)pyridin-2-yl)piperazin-1-yl)methyl)-1-(oxetan-2-ylmethyl)-1H-benzo [d]imidazole-6-carboxylic acid]		++ (a maximum insulin concentration is greater than 100 IU/mL)	> 100000
< 50	128	N#Cc1ccc(COc2cccc(N3CCN(Cc4nc5ccc(C(=O)O)nc5n4C[C@@H]4CCO4)CC3)c2)nc1 [Example 13, (S)-2-((4-(3-((5-cyanopyridin-2-yl)methoxy)phenyl)piperazin-1-yl)methyl)-3-(oxetan-2-ylmethyl)-3H-imidazo[4,5-b]pyridine-5-carboxylic acid]	+ (a maximum insulin concentration is 200˜250 IU/mL)		> 100000
< 50	91.4	N#Cc1ccc(COc2cccc(N3CCN(Cc4nc5ccc(C(=O)O)cc5n4C[C@@H]4CCO4)CC3)c2)nc1 [Example 14, (S)-2-((4-(3-((5-cyanopyridin-2-yl)methoxy)phenyl)piperazin-1-yl)methyl)-1-(oxetan-2-ylmethyl)-1H-benzo[d]imidazole-6-carboxylic acid]	+ (a maximum insulin concentration is 200˜250 IU/mL)		> 100000
< 50	102	O=C(O)c1ccc2nc(CN3CCN(c4cccc(OCc5ncc(Cl)cc5F)n4)CC3)n(C[C@@H]3CCO3)c2c1 [Example 16, (S)-2-((4-(6-((5-chloro-3-fluoropyridin-2-yl)methoxy)pyridin-2-yl)piperazin-1-yl)methyl)-1-(oxetan-2-ylmethyl)-1H-benzo[d]imidazole-6-carboxylic acid]			> 100000
